Test results as given in patent US10533003B2, “Polyheteroarl histone deacetylase inhibitors and their use in therapy” (Karus Therapeutics Limited, priority 2014, dated 2020).

Assays:
[1] = target: T1, Human HDAC1 (Homo sapiens, UniProt Q13547); experiment: Biochemical HDAC inhibition assay, acetylated AMC-labeled peptide substrate, HDAC1; details: 2 hours at 30° C., read-out: IC50 (nM) HDAC 1
T1 construct: full length with C-terminal His-tag and C-terminal FLAG-tag; His-tag (C); FLAG-tag (C); host or cells: baculovirus expression system
Description: (§1) Activity against all zinc-dependent HDACs 1 to 11 was assessed by using an acetylated AMC-labeled peptide substrate. The substrate RHKKAc was used for all class I and IIb HDACs; for HDAC8, the substrate used was RHKAcKAc. Activity against the class IIa HDACs (HDAC4, 5, 7, 9) was determined using a class IIa-specific substrate, Acetyl-Lys(trifluoroacetyl)-AMC (Lahm et al, 2007, PNAS, 104, 17335-17340). All assays were based on the AMC-labeled substrate and developer combination.
(§2) The protocol involved a two-step reaction: first, the substrate with the acetylated lysine side chain is incubated with a sample containing HDAC activity, to produce the deacetylated products, which are then digested in the second step by the addition of developer to produce the fluorescent signal proportional to the amount of deacetylated substrates.
Human HDAC1 (GenBank Accession No. NM_004964), full length with C-terminal His-tag and C-terminal FLAG-tag, MW=56 kDa, expressed in baculovirus expression system.
(§3) Assay Buffer: 50 mM Tris-HCl, pH8.0, 137 mM NaCl, 2.7 mM KCl, 1 mM MgCl2. Before use, 1 mg/mL BSA and DMSO are added.
HDAC1: 2.68 nM HDAC1 and 50 m M HDAC substrate are in the reaction buffer with 1% DMSO final. Incubate for 2 hours at 30° C.
(§4) Stage 1: Deacetylation of substrate by incubation of HDAC enzymes with corn pounds
(§5) Stage 2: Development by addition of Developer to digest the deacetylated substrate, and generate the fluorescent colour; Detection: 360/460 Ex/Em

[2] = target: T2, Recombinant human HDAC6 (Homo sapiens, UniProt Q9UBN7); experiment: Biochemical HDAC inhibition assay, acetylated AMC-labeled peptide substrate, HDAC6; details: 2 hours at 30° C., read-out: IC50 (nM) HDAC 6
T2 construct: full length, MW=180 kDa, was expressed by baculovirus in Sf9 insect cells; GST (N); host or cells: Sf9 insect cells (baculovirus)
T2 sequence (Q9UBN7 1-1215): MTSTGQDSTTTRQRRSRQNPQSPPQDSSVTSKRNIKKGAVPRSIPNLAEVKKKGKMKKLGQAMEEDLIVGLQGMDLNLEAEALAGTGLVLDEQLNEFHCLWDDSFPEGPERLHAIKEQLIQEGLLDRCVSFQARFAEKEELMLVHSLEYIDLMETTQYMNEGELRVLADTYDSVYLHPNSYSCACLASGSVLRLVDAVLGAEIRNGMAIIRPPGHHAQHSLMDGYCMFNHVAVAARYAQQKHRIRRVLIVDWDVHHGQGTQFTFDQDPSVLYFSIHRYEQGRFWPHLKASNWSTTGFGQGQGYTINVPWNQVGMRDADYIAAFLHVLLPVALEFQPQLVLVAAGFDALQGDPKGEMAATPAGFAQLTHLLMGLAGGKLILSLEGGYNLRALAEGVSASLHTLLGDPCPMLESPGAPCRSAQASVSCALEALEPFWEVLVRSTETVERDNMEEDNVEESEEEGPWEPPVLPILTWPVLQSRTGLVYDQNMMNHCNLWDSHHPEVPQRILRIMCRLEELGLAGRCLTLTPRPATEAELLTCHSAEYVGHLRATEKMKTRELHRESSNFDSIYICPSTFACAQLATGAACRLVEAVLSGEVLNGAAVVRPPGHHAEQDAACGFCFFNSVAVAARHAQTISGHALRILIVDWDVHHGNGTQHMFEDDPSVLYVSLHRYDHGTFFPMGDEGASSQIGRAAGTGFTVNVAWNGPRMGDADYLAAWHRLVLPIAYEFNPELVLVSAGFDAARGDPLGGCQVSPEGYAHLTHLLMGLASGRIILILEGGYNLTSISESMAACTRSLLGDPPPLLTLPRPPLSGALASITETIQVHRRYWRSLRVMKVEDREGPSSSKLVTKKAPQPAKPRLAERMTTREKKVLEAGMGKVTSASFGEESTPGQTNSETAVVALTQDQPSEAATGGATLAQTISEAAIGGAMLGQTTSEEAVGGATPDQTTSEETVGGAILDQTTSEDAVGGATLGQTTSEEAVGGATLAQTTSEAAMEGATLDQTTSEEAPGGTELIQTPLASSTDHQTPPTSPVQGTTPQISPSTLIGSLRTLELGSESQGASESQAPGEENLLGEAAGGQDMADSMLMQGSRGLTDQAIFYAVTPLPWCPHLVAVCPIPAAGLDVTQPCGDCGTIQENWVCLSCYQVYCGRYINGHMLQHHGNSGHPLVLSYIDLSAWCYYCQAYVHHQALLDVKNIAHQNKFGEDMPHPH
Description: as §1, §2
Recombinant human HDAC6 (GenBank Accession No. BC069243), full length, MW=180 kDa, was expressed by baculovirus in Sf9 insect cells using an N-terminal GST tag.
as §3
HDAC6: 0.56 nM HDAC6 and […] HDAC substrate are in the reaction buffer with 1% DMSO final. Incubate for 2 hours at 30° C.
as §4, §5

T1 sequence (Q13547 whole entry): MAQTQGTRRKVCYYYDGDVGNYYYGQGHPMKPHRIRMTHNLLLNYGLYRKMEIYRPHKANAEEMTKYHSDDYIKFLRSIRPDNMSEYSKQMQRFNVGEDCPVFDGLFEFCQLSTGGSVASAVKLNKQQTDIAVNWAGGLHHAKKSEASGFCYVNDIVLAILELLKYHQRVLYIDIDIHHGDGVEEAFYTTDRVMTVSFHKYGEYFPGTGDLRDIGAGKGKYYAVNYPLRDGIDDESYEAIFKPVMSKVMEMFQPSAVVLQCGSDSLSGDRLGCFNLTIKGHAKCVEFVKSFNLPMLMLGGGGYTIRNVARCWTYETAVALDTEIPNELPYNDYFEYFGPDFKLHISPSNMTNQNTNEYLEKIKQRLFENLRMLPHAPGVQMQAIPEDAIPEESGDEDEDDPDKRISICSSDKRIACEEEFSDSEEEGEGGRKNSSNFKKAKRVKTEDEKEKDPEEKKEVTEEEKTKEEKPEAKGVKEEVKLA

IC50 [1] [nM]	IC50 [2] [nM]	SMILES
≥ 10000	≤ 500	Cc1noc(C)c1-c1ccnc(N(Cc2ccc(C(=O)NO)cc2)c2cnccn2)c1 [Example H, 4-({[4-(Dimethyl-1,2-oxazol-4-yl)pyridin-2-yl](pyrazin-2-yl)amino}methyl)-N-hydroxybenzamide]
≥ 10000	≤ 500	Cc1n[nH]cc1-c1ccnc(N(Cc2ccc(C(=O)NO)cc2)c2cnccn2)c1 [Example I, N-Hydroxy-4-({[4-(3-methyl-1H-pyrazol-4-yl)pyridin-2-yl](pyrazin-2-yl)amino}methyl)benzamide]
1000 to 10000	≤ 500	O=C(NO)c1ccc(CN(c2cnccn2)c2cc(-c3cc[nH]n3)ccn2)cc1 [Example L, N-Hydroxy-4-{[(pyrazin-2-yl)[4-(1H-pyrazol-3-yl)pyridin-2-yl]amino]methyl}benzamide]
1000 to 10000	≤ 500	Cc1cc(-c2ccnc(N(Cc3ccc(C(=O)NO)cc3)c3cnccn3)c2)c(C)o1 [Example F, 4-({[4-(2,5-Dimethylfuran-3-yl)pyridin-2-yl](pyrazin-2-yl)amino}methyl)-N-hydroxybenzamide]
1000 to 10000	≤ 500	Nc1ncc(-c2ccnc(N(Cc3ccc(C(=O)NO)cc3)c3cnccn3)c2)cc1F [Example M, 4-({[4-(6-Amino-5-fluoropyridin-3-yl)pyridin-2-yl](pyrazin-2-yl)amino}methyl)-N-hydroxybenzamide]
1000 to 10000	≤ 500	Cc1n[nH]c(C)c1-c1ccnc(N(Cc2ccc(C(=O)NO)cc2)c2cnccn2)c1 [Example J, 4-({[4-(3,5-Dimethyl-1H-pyrazol-4-yl)pyridin-2-yl](pyrazin-2-yl)amino}methyl)-N-hydroxybenzamide]
500 to 1000	≤ 500	O=C(NO)c1ccc(CN(c2cnccn2)c2cc(-c3ccoc3)ccn2)cc1 [Example E, 4-({[4-(Furan-3-yl)pyridin-2-yl](pyrazin-2-yl)amino}methyl)-N-hydroxybenzamide]

The remaining lines, values behind:

SMILES	IC50 [1] [nM]	IC50 [2] [nM]
O=C(NO)c1ccc(CN(c2cnccn2)c2cc(-c3c[nH]nc3C(F)(F)F)ccn2)cc1 [Example G, N-Hydroxy-4-{[(pyrazin-2-yl)({4-[3-(trifluoromethyl)-1H-pyrazol-4-yl]pyridin-2-yl})amino]methyl}benzamide]	1000 to 10000	≤ 500
O=C(NO)c1ccc(CN(c2cnccn2)c2cc(-c3c[nH]c4ncccc34)ccn2)cc1 [Example K, N-Hydroxy-4-{[(pyrazin-2-yl)(4-{1H-pyrrolo[2,3-b]pyridin-3-yl}pyridin-2-yl)amino]methyl}benzamide]	1000 to 10000	≤ 500
Nc1ccc(-c2ccnc(N(Cc3ccc(C(=O)NO)cc3F)c3cnccn3)c2)cn1 [Example P, 4-({[4-(6-Aminopyridin-3-yl)pyridin-2-yl](pyrazin-2-yl)amino}methyl)-3-fluoro-N-hydroxybenzamide]	500 to 1000	≤ 500
CC(=O)Nc1ccc(-c2ccnc(N(Cc3ccc(C(=O)NO)cc3)c3cnccn3)c2)cn1 [Example N, 4-({[4-(6-Acetamidopyridin-3-yl)pyridin-2-yl](pyrazin-2-yl)amino}methyl)-N-hydroxybenzamide]	1000 to 10000	≤ 500
O=C(NO)c1ccc(CN(c2cnccn2)c2cc(-c3cn[nH]c3)ccn2)cc1 [Example D, N-Hydroxy-4-{[(pyrazin-2-yl)[4-(1H-pyrazol-4-yl)pyridin-2-yl]amino]methyl}benzamide]	1000 to 10000	≤ 500
Nc1ncc(-c2ccnc(N(Cc3ccc(C(=O)NO)cc3)c3cnccn3)c2)cn1 [Example A, 4-({[4-(2-Aminopyrimidin-5-yl)pyridin-2-yl](pyrazin-2-yl)amino}methyl)-N-hydroxybenzamide]	1000 to 10000	≤ 500
Nc1cc(-c2ccnc(N(Cc3ccc(C(=O)NO)cc3F)c3cnccn3)c2)ccn1 [Example Q, 4-({[4-(2-Aminopyridin-4-yl)pyridin-2-yl](pyrazin-2-yl)amino}methyl)-3-fluoro-N-hydroxybenzamide]	1000 to 10000	≤ 500
CS(=O)(=O)Nc1ccc(-c2ccnc(N(Cc3ccc(C(=O)NO)cc3F)c3cnccn3)c2)cn1 [Example T, 3-Fluoro-N-hydroxy-4-({[4-(6-methanesulfonamidopyridin-3-yl)pyridin-2-yl](pyrazin-2-yl)amino}methyl)benzamide]	≥ 10000	≤ 500
CC(=O)Nc1cc(-c2ccnc(N(Cc3ccc(C(=O)NO)cc3F)c3cnccn3)c2)ccn1 [Example S, 4-({[4-(2-Acetamidopyridin-4-yl)pyridin-2-yl](pyrazin-2-yl)amino}methyl)-3-fluoro-N-hydroxybenzamide]	1000 to 10000	≤ 500
O=C(NO)c1ccc(CN(c2cnccn2)c2cc(-c3ccc4[nH]ccc4c3)ccn2)cc1 [Example C, N-Hydroxy-4-({[4-(1H-indol-5-yl)pyridin-2-yl](pyrazin-2-yl)amino}methyl)benzamide]	500 to 1000	≤ 500
CS(=O)(=O)Nc1cc(-c2ccnc(N(Cc3ccc(C(=O)NO)cc3F)c3cnccn3)c2)ccn1 [Example U, 3-Fluoro-N-hydroxy-4-({[4-(2-methanesulfonamidopyridin-4-yl)pyridin-2-yl](pyrazin-2-yl)amino}methyl)benzamide]	≥ 10000	≤ 500
CC(=O)Nc1ccc(-c2ccnc(N(Cc3ccc(C(=O)NO)cc3F)c3cnccn3)c2)cn1 [Example R, 4-({[4-(6-Acetamidopyridin-3-yl)pyridin-2-yl](pyrazin-2-yl)amino}methyl)-3-fluoro-N-hydroxybenzamide]	1000 to 10000	≤ 500
CC(=O)Nc1cc(-c2ccnc(N(Cc3ccc(C(=O)NO)cc3)c3cnccn3)c2)ccn1 [Example O, 4-({[4-(2-Acetamidopyridin-4-yl)pyridin-2-yl](pyrazin-2-yl)amino}methyl)-N-hydroxybenzamide]	1000 to 10000	≤ 500
O=C(NO)c1ccc(CN(c2cnccn2)c2cc(-c3cnc4[nH]ccc4c3)ccn2)cc1 [Example B, N-Hydroxy-4-{[(pyrazin-2-yl)(4-{1H-pyrrolo[2,3-b]pyridin-5-yl}pyridin-2-yl)amino]methyl}benzamide]	1000 to 10000	≤ 500
